Measurements published in PubChem BioAssay AID2286 (Southern Research Specialized Biocontainment Screening …, 2010).
Activity calls are given as the source filed them.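 The calls were made as follows: active = minimum cell viability of 80% or lower across the dose range, counted as toxic; inactive = minimum cell viability above 80%.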

Assay: viability loss in fusion assay cells – cell-based, MAGI and MAGI-HeLa co-culture, cytotoxicity control for HIV-1 fusion inhibitor project, dose response (AID 2286);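 also: cells exposed to compound for at least 64 h before ATP readout; 100% = median of DMSO vehicle wells with no ATP signal meaning 0%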
Details: MAGI-CCR5 cells viability, CellTiter-Glo ATP luminescence; for minimum viability: measured here: MAGI minimum viability across doses
[1] = MAGI-HeLa co-culture viability, at 50 µM, stronger effect = lower value
[2] = at 6.25 µM, stronger effect = lower value
[3] = at 12.5 µM, stronger effect = lower value
[4] = at 3.13 µM, stronger effect = lower value
[5] = at 1.56 µM, stronger effect = lower value

Structure (SMILES)	viability [1] [%]	viability (at 50 µM (top of the series))	minimum viability (at 50 µM, stronger effect = lower value) [%]	other results
COc1cc(/C=C2\SC(=Nc3ccccc3)N(CCc3c[nH]c4ccccc34)C2=O)ccc1OC(C)C(=O)O (stereo not drawn)	103			viability (at 25 µM (top of the series)): 101% (inactive); minimum viability [2]: 95.5%
COc1ccc(O)c(C(=O)c2cc(SCC(=O)O)c3nc4sc5c(c4c(=O)n3c2)CCCC5)c1	122	96.7% (inactive)		minimum viability [3]: 90.5%
CC(C)(C)CC(C)(C)c1ccc(OCC(=O)N/N=C/c2ccc(S(=O)(=O)O)o2)cc1	104	87.8% (inactive)		minimum viability [3]: 81.1%
O=C(N/N=C/c1c(O)n(C2CCCCC2)c(=S)[nH]c1=O)c1ccccc1O	84.7		64.3	
O=C(O)c1ccc(-c2ccc(/C=c3/sc4nc5ccccc5n4c3=O)o2)cc1Cl	116	92.3% (inactive)		minimum viability (at 25 µM, stronger effect = lower value): 87.5%
Cc1cc(N2C(=O)C(O)=C(C(=O)c3cc4ccccc4o3)C2c2cccc(Br)c2)no1 (stereo not drawn)	137	87.1% (inactive)		minimum viability (at 25 µM, stronger effect = lower value): 86.4%
CCOc1cc(/C=N/Nc2cccc(C(=O)O)c2)ccc1OC(=O)c1ccccc1	110	95.7% (inactive)		minimum viability [4]: 93.3%
O=C(O)c1cc(N2N=C(C(F)(F)F)/C(=C/C=C/c3ccco3)C2=O)ccc1Cl	120	92.8% (inactive)		minimum viability [3]: 84.9%
COc1cc(/C=C2\C(=N)N3N=C(S(C)(=O)=O)SC3=NC2=O)cc(OC)c1OCCOc1ccccc1C	124	106% (inactive)		minimum viability [3]: 102%
O=C(CCN1C(=O)/C(=C/c2cccs2)SC1=S)Nc1ccc(C(=O)O)c(O)c1	104		66	
CN1C(=O)/C(=C/c2ccc(C(=O)Nc3ccc(O)cc3C(=O)O)cc2)SC1=S	104	91% (inactive)		minimum viability [3]: 87.9%
CC(C)S(=O)(=O)C1=NSC2=NC(=O)/C(=C\c3ccc(-c4cccc(C(=O)O)c4)o3)C(=N)N21	90.9	101% (inactive)		minimum viability [4]: 85.2%
COc1ccc(OC)c(N2C(=O)/C(=C/c3ccco3)C(=O)NC2=S)c1	90.2	94.8% (inactive)		minimum viability [2]: 83.8%
Cc1ccc(-c2nn(-c3ccccc3)cc2/C=C2\SC(=S)N(CC(=O)O)C2=O)cc1	92.3	81.7% (inactive)		minimum viability (at 25 µM, stronger effect = lower value): 80.9%
CCc1nnc(NS(=O)(=O)c2ccc(NC(=S)NC(=O)/C=C/c3cccs3)cc2)s1	105	93.8% (inactive)		minimum viability (at 25 µM, stronger effect = lower value): 83.5%
CCOc1cc(/C=C2\SC(=O)N(CC(=O)Nc3ccccc3F)C2=O)cc([N+](=O)[O-])c1O	114		77.4	
O=C1NN(c2ccc(Cl)c(Cl)c2)C(=O)/C1=C/c1ccc(-c2ccccc2C(=O)O)o1	121	105% (inactive)		minimum viability [5]: 89.7%
CC(C)c1ccc(OCC(=O)Nc2cccc(C(=O)Nc3ccccc3C(=O)O)c2)cc1	96.4	84% (inactive)	84	
O=C(O)CSc1nc(-c2ccc(Cl)cc2)nc2c1oc1ccccc12	108			viability (at 25 µM (top of the series)): 86.3% (inactive); minimum viability [4]: 86.2%
COc1cc(/C=C2\C(=N)N3N=C(S(C)(=O)=O)SC3=NC2=O)cc(OC)c1OCCOc1cccc(C)c1	120	82.5% (inactive)	82.5	
COC1C(OC(=O)c2ccc(C)[nH]2)C(O)C(Oc2ccc3c(O)c(NC(=O)c4ccc(O)c(CC=C(C)C)c4)c(=O)oc3c2Cl)OC1(C)C (stereo not drawn)	111	81.8% (inactive)	81.8	
CCCOc1ccc(C(=O)NNC(=S)NC(=O)c2cc(-c3ccc(Cl)cc3)nc3ccccc23)cc1	89.5	98% (inactive)		minimum viability [4]: 87.2%
COc1cc(/C=C2/SC(=S)N(CC(=O)O)C2=O)ccc1OCC(=O)Nc1ccc(C)c(C)c1	107	103% (inactive)		minimum viability (at 0.2 µM, stronger effect = lower value): 98.9%
CC(C)NC(=O)c1sc(=S)n2c1[nH]c(=O)c1ccc(C(=O)NCCc3ccc(Cl)cc3)cc12	104		55.2	
O=C(O)c1cc(NN=C2c3ccccc3-c3ccccc32)ccc1Cl	114	93.1% (inactive)	93.1	
Cc1ccc(-n2cccc2/C=C2/C(=N)N3C(=NC2=O)SN=C3S(C)(=O)=O)cc1Cl	96.7		77.3	
O=C(CCN1C(=O)/C(=C\c2ccccc2F)SC1=S)Nc1ccc(C(=O)O)c(O)c1	114	93.9% (inactive)		minimum viability [4]: 85.5%

Structure (SMILES)	viability [1] [%]	viability (at 50 µM (top of the series))	minimum viability (at 50 µM, stronger effect = lower value) [%]	other results
N#Cc1c(SCC(=O)Nc2nc3ccc(Br)cc3s2)sc2c(O)cc(=O)[nH]c12	81.1	83.3% (inactive)	83.3	
COc1cc(/C=C2/C(=N)N3C(=NC2=O)SN=C3S(C)(=O)=O)ccc1OS(=O)(=O)c1ccccc1	94.8	87% (inactive)		minimum viability (at 25 µM, stronger effect = lower value): 84.7%
N=C1/C(=C/c2ccc(-c3cccc(C(=O)O)c3)o2)C(=O)N=C2SC=C(c3ccccc3)N12	104	85.3% (inactive)	85.3	
O=C(O)c1cc(N/N=C/c2ccc(-c3ccccc3)cc2)ccc1Cl	87.4		69.9	
COc1ccc(N=C2S/C(=C\c3ccc(OCC(=O)O)cc3)C(=O)N2CCc2c[nH]c3ccccc23)cc1	173	93.7% (inactive)		minimum viability (at 25 µM, stronger effect = lower value): 90.8%
Cc1c(CCC(=O)O)c(=O)oc2c(C)c3occ(-c4ccc(Cl)cc4)c3cc12	117			minimum viability (at 25 µM, stronger effect = lower value): 64%
CCCOc1ccc(C(=O)NNC(=S)NC(=O)c2cc(-c3ccccc3)nc3ccccc23)cc1	112	105% (inactive)		minimum viability (at 25 µM, stronger effect = lower value): 99%
CC(c1ccccc1)N1C(=O)c2ccc(C(=O)Nc3ccc(Br)cc3C(=O)O)cc2C1=O (stereo not drawn)	118	96.8% (inactive)		minimum viability [4]: 86.6%
COC(=O)c1sc(-c2ccc(C(C)(C)C)cc2)cc1NC(=O)COCC(=O)O	89		74.5	
N#Cc1c(-c2ccccc2)nc(SCC(=O)N2c3ccccc3Sc3ccccc32)[nH]c1=O	103	85.5% (inactive)		minimum viability [5]: 83.6%
COc1ccccc1NS(=O)(=O)c1cccc(-n2c(O)c(C=Nc3ccccc3C(=O)O)c3ccccc3c2=O)c1	111		51.4	
CC1=C(C(=O)Nc2ccccc2)C(c2ccc(Cl)cc2)n2c(s/c(=C/c3cccc(OCC(=O)O)c3)c2=O)=N1 (stereo not drawn)	127	114% (inactive)		minimum viability [4]: 104%
N#Cc1c(-c2ccccc2)nc(SCc2cccc(Cl)c2)[nH]c1=O	101	95.8% (inactive)		minimum viability (at 25 µM, stronger effect = lower value): 88%
CCS(=O)(=O)C1=NSC2=NC(=O)/C(=C\c3ccc(OS(=O)(=O)c4ccccc4)c(OC)c3)C(=N)N21	101	80.5% (inactive)	80.5	
CCOC(=O)c1sc(N2C(=O)C(O)=C(C(=O)c3ccc(C)o3)C2c2cccc([N+](=O)[O-])c2)nc1C (stereo not drawn)	94.6			minimum viability (at 25 µM, stronger effect = lower value): 63.8%
CC(C)(C)c1ccc2c(c1)OC(C(=O)N/N=C\c1ccc(-c3cccc(C(=O)O)c3)o1)CO2 (stereo not drawn)	105	87.8% (inactive)		minimum viability [4]: 87.5%
O=C(N/N=C/c1cc(Cl)cc([N+](=O)[O-])c1O)c1ccccc1NS(=O)(=O)c1cccs1	107	96.6% (inactive)		minimum viability [3]: 92.8%
CCOc1cc(/C=N/N=C2/NC(=O)C(CC(=O)O)S2)ccc1OCc1ccc(Cl)cc1Cl (stereo not drawn)	98.7	96% (inactive)		minimum viability [3]: 83.9%
COc1cc(Cl)cc(C(c2c(C(=O)O)[nH]c3ccccc23)c2c(C(=O)O)[nH]c3ccccc23)c1O	100			viability (at 25 µM (top of the series)): 80.5% (inactive); minimum viability (at 25 µM, stronger effect = lower value): 80.5%
COc1ccc(C(=O)COC(=O)c2ccccc2NS(=O)(=O)c2ccc(O)c([N+](=O)[O-])c2)cc1	96	83.3% (inactive)	83.3	
O=C(O)c1ccccc1-c1ccccc1C(=O)Nc1ccc(-c2nc3cc(Cl)ccc3o2)cc1	80.5		56.8	
CCCCCC#CCC#CCC#CCC#CCCCC(=O)O	119	94.8% (inactive)		minimum viability [4]: 89.9%
O=C(O)COc1ccc(Br)cc1C(c1c(C(=O)O)[nH]c2ccccc12)c1c(C(=O)O)[nH]c2ccccc12	95.6	91.8% (inactive)		minimum viability (at 25 µM, stronger effect = lower value): 88%
O=C(COc1ccc(Cl)cc1)Nc1cc(NC(=O)COc2ccc(Cl)cc2)cc(C(=O)O)c1	99.5	105% (inactive)		minimum viability [3]: 98.6%
CCC(Sc1nc2ccsc2c(=O)n1Cc1ccc(C(=O)O)cc1)C(=O)Nc1ccc(C)c(Cl)c1 (stereo not drawn)	98			viability (at 25 µM (top of the series)): 93.6% (inactive); minimum viability [4]: 86.7%
Cc1ccc(S(=O)(=O)Oc2ccc(/C=C3\C(=N)N4N=C(S(C)(=O)=O)SC4=NC3=O)cc2)cc1	103	98.5% (inactive)		minimum viability (at 25 µM, stronger effect = lower value): 97.1%
